Read-outs that look alike come from different tables or passages of the source. Blank lines part the entries; values can stand above or below the compound they belong to.
Key:
[1] = biological target: HIV-1 protease (Human immunodeficiency virus type 1 group M subtype B, UniProt P04585); assay: HIV-1 protease enzyme inhibitory assay (protocol of Toth and Marshall); type: biochemical; details: for fold change in Ki compared to inhibitor 35a: loss of enzyme inhibitory potency vs 35a
[2] = tested on: HIV-1LAI; assay: Antiviral assay in MT-2 human T-lymphoid cells exposed to HIV-1LAI, MTT readout; type: cell-based
[3] = tested on: HIV-1MDR/B (X4); assay: Antiviral activity in PHA-PBMs, p24 Gag, multidrug resistant clinical isolate; type: cell-based; details: for EC50: PHA-PBMs, p24 Gag
Text: (§1) Inhibitor 35a was examined for its activity against a panel of multidrug-resistant HIV-1 variants and compared it with that of other clinically available PIs including 1a. […] This inhibitor outperformed the clinically available PIs with high antiviral activity and seems to compare well with 1a, which currently stands as the leading PI for the treatment of drug-resistant HIV infection.

[4] = tested on: HIV-1MDR/JSL (R5); assay: as above; type: cell-based; details: for EC50: PHA-PBMs, p24 Gag
Text: as §1

[5] = tested on: HIV-1ERS104pre (X4); assay: Antiviral activity in PHA-PBMs, inhibition of p24 Gag protein production, wild-type clinical isolate; type: cell-based
Text: as §1

[6] = tested on: HIV-1MDR/TM (X4); assay: Antiviral activity in PHA-PBMs, p24 Gag, multidrug resistant clinical isolate; type: cell-based
Text: as §1

[7] = tested on: HIV-1MDR/G (X4); assay: as above; type: cell-based
Text: as §1

[8] = tested on: HIV-1MRD/C (X4); assay: as above; type: cell-based
Text: as §1

[9] = tested on: HIV-1MDR/MM (R5); assay: as above; type: cell-based
Text: as §1

[10] = Human immunodeficiency virus 1, MT2
[11] = Human immunodeficiency virus 1, T-lymphoid, read-out: Antiviral IC50, (nM)
[12] = Human immunodeficiency virus 1, T-lymphoid
[13] = Human immunodeficiency virus 1, MT2, MT-2 cells, 100 TCID50s of HIV-1LAI, MTT assay, read-out: IC50

Compound: CC(C)CN(C[C@@H](O)[C@H](Cc1ccccc1)NC(=O)O[C@H]1CCO[C@H]2OCC[C@H]21)S(=O)(=O)c1ccc(CO)cc1 [compound 37]
Ki ([1]; read-out: Ki): 0.085 nM
IC50 [2, 10]: 4.5 nM

Compound: COc1cccc(C[C@H](NC(=O)O[C@H]2CCO[C@H]3OCC[C@H]32)[C@H](O)CN(CC(C)C)S(=O)(=O)c2ccc3nc(NC(C)C)oc3c2)c1
Ki [1]: < 0.1 nM
IC50 [2, 11]: < 10 nM

Compound: Cc1cccc(C)c1OCC(=O)N[C@@H](Cc1ccccc1)[C@@H](O)C[C@H](Cc1ccccc1)NC(=O)[C@H](C(C)C)N1CCCNC1=O [LPV]
EC50 [3]: > 1000 nM
EC50 [4]: > 1000 nM

Compound: COc1ccc(C[C@H](NC(=O)O[C@H]2CCO[C@H]3OCC[C@H]32)[C@H](O)CN(C[C@H]2CCC(=O)N2)S(=O)(=O)c2ccc(OC)cc2)cc1 [compound 3]
Ki [1]: < 0.1 nM
IC50 [2, 12]: 100 to 1000 nM

Compound: COc1ccc(C[C@H](NC(=O)O[C@H]2CCO[C@H]3OCC[C@H]32)[C@H](O)CN(C[C@H]2CCC(=O)N2)S(=O)(=O)c2ccc(N)cc2)cc1 [compound 4]
Ki [1]: < 10 nM
IC50 [2, 12]: > 1000 nM

Compound: CC(C)CN(C[C@@H](O)[C@H](Cc1ccccc1)NC(=O)O[C@H]1CO[C@H]2OCC[C@H]21)S(=O)(=O)c1ccc(N)cc1 [drawing 189]
IC50 [2, 11]: < 10 nM

Compound: COc1ccc(S(=O)(=O)N(CC(C)C)C[C@@H](O)[C@H](Cc2ccccc2)NC(=O)O[C@H]2CCO[C@H]3CCC[C@H]32)cc1 [35d, (4S,4aR,7aS)-Octahydrocyclopenta[b]pyran-4-yl((2S,3R)-3-hydroxy-4-(N-isobutyl-4-methoxyphenylsulfonamido)-1-phenylbutan-2-yl)carbamate]
Ki ([1]; read-out: Ki): 1.43 nM

Compound: COc1cccc(C[C@H](NC(=O)O[C@H]2CCO[C@H]3OCC[C@H]32)[C@H](O)CN(CC(C)C)S(=O)(=O)c2ccc3nc(NC(C)C)sc3c2)c1
Ki [1]: < 0.1 nM
IC50 [2, 11]: < 1 nM

Compound: CC(C)(C)NC(=O)[C@@H]1C[C@@H]2CCCC[C@@H]2CN1C[C@@H](O)[C@H](Cc1ccccc1)NC(=O)[C@H](CC(N)=O)NC(=O)c1ccc2ccccc2n1 [saquinavir, reference compound]
IC50 [2, 10]: 15 nM

Compound: COc1ccc(S(=O)(=O)N(CC(C)C)C[C@@H](O)[C@H](Cc2ccccc2)NC(=O)O[C@H]2CO[C@H]3OCC[C@H]3C2)cc1 [35g, (3aS,5R,7aR)-Hexahydro-2H-furo[2,3-b]pyran-5-yl((2S,3R)-3-hydroxy-4-(N-isobutyl-4-methoxyphenylsulfonamido)-1-phenylbutan-2-yl)carbamate]
protease inhibitory activity [1]: substantial loss of protease inhibitory activity
Ki ([1]; read-out: Ki): 0.11 nM

Compound: COc1ccc(S(=O)(=O)N(CC(C)C)C[C@@H](O)[C@H](Cc2ccccc2)NC(=O)O[C@H]2CCC[C@H]3OCC[C@@H]23)cc1 [35c, (3aR,4S,7aR)-Octahydrobenzofuran-4-yl(2S,3R)-3-hydroxy-4-(N-isobutyl-4-methoxyphenylsulfonamido)-1-phenylbutan-2-yl carbamate]
fold change in Ki compared to inhibitor 35a [1]: 2 fold
Ki ([1]; read-out: Ki): 0.005 nM
IC50 [2, 13]: 8 nM
fold decrease in antiviral activity compared to inhibitor 35a ([2]; MT-2 cells, HIV-1LAI): 16 fold

Compound: COc1ccc(S(=O)(=O)N(CC(C)C)C[C@@H](O)[C@H](Cc2ccccc2)NC(=O)O[C@H]2CCO[C@H]3OC[C@H](OC)[C@H]32)cc1
Ki [1]: < 0.1 nM
IC50 [2, 11]: < 1 nM

Compound: COc1ccc(S(=O)(=O)N(CC(C)C)C[C@@H](O)[C@H](Cc2ccccc2)NC(=O)O[C@H]2CCO[C@H]3OC[C@H](O)[C@H]32)cc1
Ki [1]: < 0.1 nM
IC50 [2, 11]: < 10 nM

Compound: CC(C)CN(C[C@@H](O)[C@H](Cc1ccccc1)NC(=O)O[C@H]1CCO[C@H]2OCC[C@H]21)S(=O)(=O)c1ccc(N)cc1 [compound 36]
Ki ([1]; read-out: Ki): 0.01 nM
IC50 [2, 10]: 6.5 nM

Compound: COC(=O)N[C@H](C(=O)N[C@@H](Cc1ccccc1)[C@@H](O)CN(Cc1ccc(-c2ccccn2)cc1)NC(=O)[C@@H](NC(=O)OC)C(C)(C)C)C(C)(C)C [ATV]
EC50 [5]: 2.7 ± 0.6 nM
EC50 ([6]; PHA-PBMs, p24 Gag): 75 ± 3 nM
fold change of EC50 compared to wild-type HIV-1ERS104pre ([6]; number in parentheses): 28 fold
EC50 ([7]; PHA-PBMs, p24 Gag): 19 ± 8 nM
fold change of EC50 compared to wild-type HIV-1ERS104pre ([7]; number in parentheses): 7 fold
EC50 ([8]; PHA-PBMs, p24 Gag): 39 ± 3 nM
fold change of EC50 compared to wild-type HIV-1ERS104pre ([8]; number in parentheses): 14 fold
EC50 [3]: 470 ± 7 nM
fold change of EC50 compared to wild-type HIV-1ERS104pre ([3]; number in parentheses): 174 fold
EC50 ([9]; PHA-PBMs, p24 Gag): 205 ± 24 nM
fold change of EC50 compared to wild-type HIV-1ERS104pre ([9]; number in parentheses): 76 fold
EC50 [4]: 293 ± 99 nM
fold change of EC50 compared to wild-type HIV-1ERS104pre ([4]; number in parentheses): 109 fold

Compound: COc1ccc(S(=O)(=O)N(CC(C)C)C[C@@H](O)[C@H](Cc2ccccc2)NC(=O)O[C@H]2CCC[C@H]3CCC[C@H]32)cc1 [35e]
Ki ([1]; read-out: Ki): 9 nM
IC50 [2, 10]: > 1000 nM
antiviral activity ([2]; MT-2 cells, HIV-1LAI): no appreciable antiviral activity

Compound: CCNC1CO[C@@H]2OCC[C@H](OC(=O)N[C@@H](Cc3ccccc3)[C@H](O)CN(CC(C)C)S(=O)(=O)c3ccc4nc(NC(C)C)sc4c3)C12 (stereo partly drawn)
Ki [1]: < 0.1 nM
IC50 [2, 11]: < 10 nM

Compound: CC(C)CN(C[C@@H](O)[C@H](Cc1ccccc1)NC(=O)O[C@H]1CCO[C@H]2OCC[C@H]21)S(=O)(=O)c1ccc2nc(NC(C)C)sc2c1
Ki [1]: < 0.1 nM
IC50 [2, 11]: < 1 nM

Compound: CC(C)CN(C[C@@H](O)[C@H](Cc1ccccc1)NC(=O)O[C@H]1CCO[C@H]2OCC(O)C21)S(=O)(=O)c1ccc2nc(NC(C)C)sc2c1 (stereo partly drawn)
Ki [1]: < 0.1 nM
IC50 [2, 11]: < 10 nM

Compound: COc1ccc(S(=O)(=O)N(CC(C)C)C[C@@H](O)[C@H](Cc2ccccc2)NC(=O)O[C@@H]2CCO[C@@H]3OCC[C@@H]32)cc1 [35b, (3aR,4R,7aS)-Hexahydro-2H-furo[2,3-b]pyran-4-yl((2S,3R)-3-hydroxy-4-(N-isobutyl-4-methoxyphenylsulfonamido)-1-phenylbutan-2-yl)carbamate]
fold change in Ki compared to inhibitor 35a [1]: > 20 fold
Ki ([1]; read-out: Ki): 0.068 nM
IC50 [2, 10]: 19 nM
IC50 ([2]; Human immunodeficiency virus 1, MT2, read-out: antiviral activity ID50): 19 nM

Compound: COc1ccc(C[C@H](NC(=O)O[C@H]2CCO[C@H]3OCC[C@H]32)[C@H](O)CN(CC(C)C)S(=O)(=O)c2ccc(N)cc2)cc1 [compound 1]
Ki [1]: < 1 nM
IC50 [2, 12]: 1 to 10 nM

IC50 [2, 13]: 30 nM
Compound: CC(C)CN(C[C@@H](O)[C@H](Cc1ccccc1)NC(=O)O[C@H]1CCOC1)S(=O)(=O)c1ccc(N)cc1 [amprenavir, reference compound]

Compound: COc1ccc(C[C@H](NC(=O)O[C@H]2CCO[C@H]3OC[C@H](O)[C@H]32)[C@H](O)CN(CC(C)C)S(=O)(=O)c2ccc(OC)cc2)cc1
Ki [1]: < 0.1 nM
IC50 [2, 11]: < 10 nM

Compound: COc1ccc(C[C@H](NC(=O)O[C@H]2CCO[C@H]3OCC[C@H]32)[C@H](O)CN(CC(C)C)S(=O)(=O)c2ccc(OC)cc2)cc1 [compound 2]
Ki [1]: < 0.1 nM
IC50 [2, 12]: < 1 nM

Compound: COc1ccc(S(=O)(=O)N(CC(C)C)C[C@@H](O)[C@H](Cc2ccccc2)NC(=O)O[C@H]2CCO[C@H]3COC[C@H]32)cc1 [35f, (4S,4aS,7aR)-Hexahydro-2H-furo[3,4-b]pyran-4-yl((2S,3R)-3-hydroxy-4-(N-isobutyl-4-methoxyphenylsulfonamido)-1-phenylbutan-2-yl)carbamate]
protease inhibitory activity [1]: substantial loss of potency
Ki ([1]; read-out: Ki): 5.3 nM
IC50 [2, 10]: > 1000 nM
antiviral activity ([2]; MT-2 cells, HIV-1LAI): no antiviral activity

Compound: COc1ccc(C[C@H](NC(=O)O[C@H]2CCO[C@H]3OCC[C@H]32)[C@H](O)CN(CC(C)C)S(=O)(=O)c2ccc3nc(NC(C)C)oc3c2)cc1
Ki [1]: < 0.1 nM
IC50 [2, 11]: < 10 nM

Compound: COc1ccc(S(=O)(=O)N(CC(C)C)C[C@@H](O)[C@H](Cc2ccccc2)NC(=O)O[C@H]2CCO[C@H]3OC[C@H](OCc4ccccc4)[C@H]32)cc1
Ki [1]: < 1 nM
IC50 [2, 11]: < 1 nM

IC50 ([2]; Human immunodeficiency virus 1, T-lymphoid, Examples Table 3, scored, read-out: Antiviral IC50): < 10 nM
Compound: CC(C)CN(C[C@@H](O)[C@H](Cc1ccccc1)NC(=O)O[C@H]1CCO[C@H]2OCC[C@H]21)S(=O)(=O)c1ccc2nc(NC(C)C)oc2c1
